Measurements: patent US6316411A, “Protection against ischemia and reperfusion injury” (University of Kentucky Research Foundation, priority 2000, dated 2001)

Experiments:
isolated rat hearts = experiment: Isolated perfused rat heart (Langendorff), 20 min global ischemia and 120 min reperfusion after 24 h pretreatment; format: in vivo; conditions: FIG. 7, pretreated 24 h prior to ischemia, compound-D 2.0 mg/kg and/or naltrexone 3 mg/kg, 20 min ischemia, control about 27%
Experimental: Compound-D SEQ ID NO:1, at a dose of 2 mg/kg and solubilized as described above, was administered by tail vein injection into rats weighing between about 350-400 g (number of animals (n)=6). Control rats (n=6) were injected in the same manner with an equal volume of 0.9% NaCI. After 24 h, the hearts from both treated and control animals were excised and perfused in a modified Langendorff perfusion apparatus at 37° C. using oxygenated Krebs-Henseleit buffer as the perfusate, as known to one skilled in the art. Coronary perfusion pressure was maintained at 70 mm Hg by regulating coronary flow. All hearts were paced at […] (300 beats per minute, bpm) except during ischemia. A saline-filled balloon was inserted in the left ventricle to measure developed pressure (DP) and end-diastolic pressure (EDP) in mm Hg. After 15 min equilibration, both groups were subjected to 20 min zero-flow global ischemia, and then were reperfused for 120 min.
Left ventricles were isolated and divided into three segments along their short axis, stained with triphenyltetrazolium chloride, and stored in formalin. Infarct size was measured on digitized images and expressed as a per centage of myocardium. Data were expressed as mean plus or minus standard error of the mean (±SEM) and were analyze using a […] Student's t-Test. Confidence limits were established at 95%. […]

mouse vas deferens = experiment: Mouse vas deferens (m.v.d.) contractility assay; conditions: FIG. 8; 6000 nM glibenclamide with 1000 nM compound-D
Experimental: Glibenclamide, a KATP channel blocker, blocked the inhibition of contraction of mouse vas deferens induced by compound-D SEQ ID NO:1. With reference to FIG. 8, the effect of administration of 1000 nM compound-D SEQ ID NO:1 alone (open bar) versus 1000 nM compound-D SEQ ID NO:1 with 6000 nM glibenclamide (hatched bar) on contractility of mouse vas deferens (m.v.d.) (n=6) is shown. […] (n=2).

Structure (SMILES): O=C1CC[C@@]2(O)[C@H]3Cc4ccc(O)c5c4[C@@]2(CCN3CC2CC2)[C@H]1O5 [naltrexone]
- infarct size (isolated rat hearts): about 14.5%

Structure (SMILES): COc1ccc(Cl)cc1C(=O)NCCc1ccc(S(=O)(=O)NC(=O)NC2CCCCC2)cc1 [Glibenclamide]
- effect of glibenclamide on compound-D suppressed m.v.d. contractions (mouse vas deferens): restored m.v.d. contractions
